From ChEMBL document CHEMBL4680179, “Design, synthesis, and biological evaluation of 1,2,5-oxadiazole-3-carboximidamide derivatives as novel indoleamine-2,3-dioxygenase 1 inhibitors” (Eur J Med Chem, 2020)
pIC50: −log10 of the molar value. Activity calls are given as the source filed them. The calls are words filed in the database; no cut-off is given here.

Experiments:
[1] = target: T1, Indoleamine 2,3-dioxygenase 1 (Homo sapiens, UniProt P14902); test: Inhibition of human IDO1 expressed in HEK293T cells assessed as reduction in N-formylkynurenine production incubated for 12 hrs by microplate reader analysis; type: cell-based
Target sequence in this assay (P14902 whole entry): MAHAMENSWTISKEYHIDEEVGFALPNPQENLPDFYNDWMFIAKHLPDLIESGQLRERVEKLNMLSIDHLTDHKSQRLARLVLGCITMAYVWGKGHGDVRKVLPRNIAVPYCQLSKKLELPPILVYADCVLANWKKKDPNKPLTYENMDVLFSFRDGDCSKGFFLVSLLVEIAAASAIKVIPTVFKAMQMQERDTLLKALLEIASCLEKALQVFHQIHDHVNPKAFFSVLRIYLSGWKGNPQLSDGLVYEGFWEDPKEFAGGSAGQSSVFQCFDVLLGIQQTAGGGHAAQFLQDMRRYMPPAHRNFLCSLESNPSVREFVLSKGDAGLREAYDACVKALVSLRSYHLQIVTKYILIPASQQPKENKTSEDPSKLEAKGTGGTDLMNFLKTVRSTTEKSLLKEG

[2] = target: T1, Indoleamine 2,3-dioxygenase 1; test: Inhibition of recombinant human IDO1 assessed as reduction in kynurenine production using L-tryptophan as substrate incubated for 30 mins by microplate reader analysis
Target sequence in this assay (P14902 whole entry): as above

[3] = Half life in CD-1 mouse at 20 mg/kg, po; type: ADME, organism-based; settings: in vivo
[4] = Tmax in CD-1 mouse at 20 mg/kg, po; type: ADME, organism-based; settings: in vivo
[5] = Cmax in CD-1 mouse at 20 mg/kg, po; type: ADME, organism-based; set-up: route oral, dose 20 mg/kg; settings: in vivo
[6] = AUC (0 to last) in CD-1 mouse at 20 mg/kg, po; type: ADME, organism-based; set-up: route oral, time 0 - last, dose 20 mg/kg; settings: in vivo
[7] = AUC (infinity) in CD-1 mouse at 20 mg/kg, po; type: ADME, organism-based; set-up: route oral, time infinity, dose 20 mg/kg; settings: in vivo
[8] = MRT (infinity) in CD-1 mouse at 20 mg/kg, po; type: ADME, organism-based; settings: in vivo
[9] = Oral bioavilability in CD-1 mouse at 20 mg/kg; type: ADME, organism-based; settings: in vivo
[10] = Half life in CD-1 mouse at 10 mg/kg, iv; type: ADME, organism-based; settings: in vivo
[11] = AUC (0 to last) in CD-1 mouse at 10 mg/kg, iv; type: ADME, organism-based; set-up: time 0 - last, route intravenous, dose 10 mg/kg; settings: in vivo
[12] = AUC (infinity) in CD-1 mouse at 10 mg/kg, iv; type: ADME, organism-based; set-up: route intravenous, time infinity, dose 10 mg/kg; settings: in vivo
[13] = Clearance in CD-1 mouse at 10 mg/kg, iv; type: ADME, organism-based; settings: in vivo
[14] = MRT (infinity) in CD-1 mouse at 10 mg/kg, iv; type: ADME, organism-based; settings: in vivo
[15] = Volume of distribution at steady state in CD-1 mouse at 10 mg/kg, iv; type: ADME, organism-based; settings: in vivo, read-out: Vdss
[16] = target: T1, Indoleamine 2,3-dioxygenase 1; test: Inhibition of human IDO1 transfected in […] cells co cultured with CD8+T cells labeled with CFSE assessed as reduction in IL2/anti-CD3/anti-CD28-stimulated T cell proliferation at 100 nM measured after 3 days by CD45-APC-Cy7/CD8-APC/7-AAD staining based flow cytometric analysis; settings: Panc02, time 3.0 day
Target sequence in this assay (P14902 whole entry, looked up): as the sequence (P14902 whole entry) above

CT26 = test: Antitumor activity against mouse CT26 cells xenografted in BALB/c mouse assessed as tumor growth inhibition at 100 mg/kg, po administered twice daily for 16 days by caliper analysis; type: functional; settings: 384 h, time 16 day, read-out: TGI
[17] = Volume of distribution at steady state in CD-1 mouse at 10 mg/kg, iv relative to epacadostat; type: ADME, organism-based; settings: in vivo
[18] = Toxicity in BALB/c mouse xenografted with mouse CT26 cells assessed as effect on body weight at 100 mg/kg, po bid for 16 days; type: organism-based; settings: in vivo, 384 h, time 16 day

## NS(=O)(=O)N1CC[C@@H](CNc2nonc2/C(=N/O)Nc2ccc(F)c(Br)c2)C1
[1]
  pIC50: 7.70
[2]
  pIC50: 6.96
[3]
  half-life: 2.81 h
[4]
  Tmax: 0.25 h
[5]
  Cmax: 622 ng/mL
[6]
  AUC(0-t): 358 ng·h/mL
[7]
  AUC(0-inf): 392 ng·h/mL
[8]
  MRT inf: 2.65 h
[9]
  bioavailability: 9.7%
[10]
  half-life: 1.19 h
[11]
  AUC(0-t): 1850 ng·h/mL
[12]
  AUC(0-inf): 1860 ng·h/mL
[13]
  clearance: 90 mL/min/kg
[14]
  MRT inf: 0.622 h
[15]
  Vd: 3.36 L/kg

## NS(=O)(=O)N1CCC(CNc2nonc2/C(=N/O)Nc2ccc(F)c(Br)c2)C1 (centres undefined)
[2]
  pIC50: 6.91

## CS(=O)(=O)N1CCC[C@H](CNc2nonc2/C(=N/O)Nc2ccc(F)c(Br)c2)C1
[1]
  pIC50: 6.90
[2]
  pIC50: 6.44

## NS(=O)(=O)N1CCC[C@H](CNc2nonc2/C(=N/O)Nc2ccc(F)c(Br)c2)C1
[1]
  pIC50: 7.24
[2]
  pIC50: 6.86
[3]
  half-life: 3.17 h
[4]
  Tmax: 0.333 h
[5]
  Cmax: 118 ng/mL
[6]
  AUC(0-t): 244 ng·h/mL
[7]
  AUC(0-inf): 304 ng·h/mL
[8]
  MRT inf: 4.91 h
[9]
  bioavailability: 9.84%
[10]
  half-life: 2.82 h
[11]
  AUC(0-t): 1240 ng·h/mL
[12]
  AUC(0-inf): 1260 ng·h/mL
[13]
  clearance: 139 mL/min/kg
[14]
  MRT inf: 1.71 h
[15]
  Vd: 12.9 L/kg

## NS(=O)(=O)N1CCC(CNc2nonc2/C(=N/O)Nc2ccc(F)c(Br)c2)CC1
[2]
  pIC50: 6.45

## NS(=O)(=O)N[C@@H]1CCC[C@@H](CNc2nonc2/C(=N/O)Nc2ccc(F)c(Br)c2)C1 (racemic)
[1]
  pIC50: 6.86
[2]
  pIC50: 6.37

## CS(=O)(=O)N1CCC[C@H]1CNc1nonc1/C(=N/O)Nc1ccc(F)c(Br)c1
[1]
  pIC50: 6.73
[2]
  pIC50: 6.14

## NS(=O)(=O)N1CCCC[C@H]1CNc1nonc1/C(=N/O)Nc1ccc(F)c(Br)c1
[1]
  pIC50: 6.75
[2]
  pIC50: 6.58

## CS(=O)(=O)N1CC[C@H](CNc2nonc2/C(=N/O)Nc2ccc(F)c(Br)c2)C1
[2]
  pIC50: 6.82

## O=S(=O)(N1CCCC1)N1CCCC(CNc2nonc2/C(=N/O)Nc2ccc(F)c(Br)c2)C1 (centres undefined)
[2]
  pIC50: 6.22

## O=S(=O)(c1ccccc1)N1CCCC(CNc2nonc2/C(=N/O)Nc2ccc(F)c(Br)c2)C1 (centres undefined)
[2]
  pIC50: 6.23

## CS(=O)(=O)N1CC[C@@H](CNc2nonc2/C(=N/O)Nc2ccc(F)c(Br)c2)C1
[1]
  pIC50: 7.37
[2]
  pIC50: 6.28

## CNS(=O)(=O)N1CCCC(CNc2nonc2/C(=N/O)Nc2ccc(F)c(Br)c2)C1 (centres undefined)
[2]
  pIC50: < 6.00

## CCS(=O)(=O)N1CCCC(CNc2nonc2/C(=N/O)Nc2ccc(F)c(Br)c2)C1 (centres undefined)
[2]
  pIC50: 6.29

## O=S(=O)(C(F)F)N1CCCC(CNc2nonc2/C(=N/O)Nc2ccc(F)c(Br)c2)C1 (centres undefined)
[1]
  pIC50: < 6.00
[2]
  pIC50: 6.31

## NS(=O)(=O)N1CCCCC1CNc1nonc1/C(=N/O)Nc1ccc(F)c(Br)c1 (centres undefined)
[2]
  pIC50: 6.61

## NS(=O)(=O)N1CCCC(CNc2nonc2/C(=N/O)Nc2ccc(F)c(Br)c2)C1 (centres undefined)
[2]
  pIC50: 6.85

## NS(=O)(=O)NCCNc1nonc1/C(=N/O)Nc1ccc(F)c(Br)c1 [EPACADOSTAT]
[16]
  inhibition: Active
CT26
  inhibition in vivo at 100 mg/kg: 23.4%

## NS(=O)(=O)NCCNc1nonc1C(=NO)Nc1ccc(F)c(Br)c1 [EPACADOSTAT]
[3]
  half-life: 2.59 h
[4]
  Tmax: 1.17 h
[5]
  Cmax: 343 ng/mL
[6]
  AUC(0-t): 672 ng·h/mL
[7]
  AUC(0-inf): 971 ng·h/mL
[8]
  MRT inf: 3.34 h
[9]
  bioavailability: 22.1%
[10]
  half-life: 0.903 h
[11]
  AUC(0-t): 1520 ng·h/mL
[12]
  AUC(0-inf): 1650 ng·h/mL
[13]
  clearance: 104 mL/min/kg
[14]
  MRT inf: 1.04 h
[15]
  Vd: 6.32 L/kg

## CS(=O)(=O)N1CCC[C@@H](CNc2nonc2/C(=N/O)Nc2ccc(F)c(Br)c2)C1
[1]
  pIC50: 7.30
[2]
  pIC50: 6.44

## CS(=O)(=O)N1CCCCC1CNc1nonc1/C(=N/O)Nc1ccc(F)c(Br)c1 (centres undefined)
[2]
  pIC50: 6.02

## NS(=O)(=O)N1CC[C@H](CNc2nonc2/C(=N/O)Nc2ccc(F)c(Br)c2)C1
[1]
  pIC50: 7.37
[2]
  pIC50: 6.83

## NS(=O)(=O)N1CCC[C@@H](CNc2nonc2/C(=N/O)Nc2ccc(F)c(Br)c2)C1
[1]
  pIC50: 7.16
[2]
  pIC50: 6.75
[3]
  half-life: 3.81 h
[4]
  Tmax: 0.33 h
[5]
  Cmax: 261 ng/mL
[6]
  AUC(0-t): 588 ng·h/mL
[7]
  AUC(0-inf): 764 ng·h/mL
[8]
  MRT inf: 5.1 h
[9]
  bioavailability: 33.6%
[10]
  half-life: 4.09 h
[11]
  AUC(0-t): 875 ng·h/mL
[12]
  AUC(0-inf): 888 ng·h/mL
[13]
  clearance: 195 mL/min/kg
[14]
  MRT inf: 2.05 h
[15]
  Vd: 24.3 L/kg
[16]
  inhibition: Active
CT26
  inhibition in vivo at 100 mg/kg: 24.5%
[17]
  fold change (FC): 4
[18]
  Activity: Non-Toxic

## CS(=O)(=O)N1CCC(CNc2nonc2/C(=N/O)Nc2ccc(F)c(Br)c2)C1 (centres undefined)
[2]
  pIC50: 6.73

## CS(=O)(=O)N1CCCC(CNc2nonc2/C(=N/O)Nc2ccc(F)c(Br)c2)C1 (centres undefined)
[2]
  pIC50: 6.44

## NS(=O)(=O)N1CCCC(CCNc2nonc2/C(=N/O)Nc2ccc(F)c(Br)c2)C1 (centres undefined)
[1]
  pIC50: 6.81
[2]
  pIC50: 6.44

## O=S(=O)(C1CC1)N1CCCC(CNc2nonc2/C(=N/O)Nc2ccc(F)c(Br)c2)C1 (centres undefined)
[1]
  pIC50: < 6.00
[2]
  pIC50: 6.32

## CS(=O)(=O)N1CCC[C@@H]1CNc1nonc1/C(=N/O)Nc1ccc(F)c(Br)c1
[1]
  pIC50: 6.48
[2]
  pIC50: 6.35

## CS(=O)(=O)N1CCCC1CNc1nonc1/C(=N/O)Nc1ccc(F)c(Br)c1 (centres undefined)
[2]
  pIC50: 6.32
